Key:
[1] = tested on: Cox-2 gene expression; test: Cox-2 gene expression in Caco-2 cells (Northern blot / RT-PCR); type: cell-based, human; conditions: TF-2 effects seen at 50 to 100 μM
Experimental: All three polyphenols were tested, TF-1, TF-2 and TF-3.
The effect of TF-2 on the time course of Cox-2 gene expression in Caco-2 cells was then examined. Cox-2 mRNA was detectable in quiescent Caco-2 cells, consistent with the finding that colon cancer cells have elevated Cox-2 gene expression. Fresh serum induced a 2- to 4-fold increase in Cox-2 expression in Caco-2 cells as early as 4 hours after stimulation; this was expected because of the known stimulatory effects of serum factors.
Confluent cultures were serum-deprived for 48 hours. Cells were then treated with 10% fresh fetal bovine serum in the presence or absence of the black tea extracts (10, 20, 40, 50, 80 or 100 μM) to initiate the progression of the cell cycle. Cells were harvested at either 4 or 12 hours for total RNA isolation. Total RNA samples were resolved by electrophoresis on 1% agarose-formaldehyde gel (6 μg per lane) and transferred onto a nylon membrane. Northern blot analysis was performed.
Confluent cultures were first serum-deprived for 48 hours and then stimulated with 10% fresh fetal bovine serum in the absence or presence of black tea extracts. Cells were harvested and total RNA was prepared using a kit (QIAGEN, Chatsworth, Calif.). Total RNA (1 μg) from each cell sample was reverse transcribed into cDNA by incubating with RNase H reverse transcriptase (Gibco BRL, Grand Island, N.Y.) using oligo(dT)12-18 as primer. For PCR amplification, gene specific primers were designed. The sequences of the sense and antisense primers for various genes were: […]
PCR was performed under conditions that allowed the amounts of PCR products to be proportional to the amounts of RNA input. The housekeeping gene, glyceraldehyde-3-phosphate dehydrogenase (GAPDH) was used as an internal control. The PCR products were analyzed by electrophoresis on 1% agarose gel containing 0.5 μg/ml ethidium bromide.

[2] = tested on: Caco-2 colorectal cancer cells, Hs578T breast cancer cells, and SV40-transformed W138 cells; conditions: Chen et al. 1998; cited from earlier work
[3] = tested on: normal counterparts; conditions: Chen et al. 1998; cited from earlier work
[4] = tested on: W138VA cells; test: proliferation assay, crystal violet staining; type: cell-based, human; conditions: 0, 1, 5, 10, 25 and 50 μM; 4 days
Experimental: The effects of black tea polyphenols on proliferation of W138 and W138VA cells was examined. W138 diploid fibroblasts have a finite life span whereas the virally transformed W138VA cells are cancerous in nude mice. Both cell types were grown in 24 well plates in the presence of increasing doses of the theaflavin polyphenols, TF-1, TF-2 and TF-3 (0, 1, 5, 10, 25 and 50 μM). Viable cells were stained with crystal violet 4 days after plating. A decrease in staining intensity relative to the untreated control cells were indicative of growth inhibition by the polyphenol compound. Of the three theaflavin polyphenols tested, only TF-2 had significant effects on cells growth. […] The IC50 value for TF-2 and growth inhibition of W138VA cells was estimated to be 3 μM.
Normal human W138 (cell strain AG06814E, PDL=16) and the SV40 virally transformed W138 cells (cell strain AG07217) were obtained from Coriell Institute for Medical Research (Camden, N.J.). Human colon cancer cells, Caco-2 (ATCC #HTB-37) and the matched normal colon cells CCD-33Co (ATCC #CRL-1539) were obtained from the American Type Culture Collection (Rockville, Md.). Cells were cultured in Dulbecco's medium containing 10% fetal bovine serum at 37° C., 5% CO2. […] Cell growth was measured by counting viable cells using the Trypan Blue exclusion method. […] Proliferation was monitored by crystal-violet staining. […]

[5] = tested on: human lymphoid leukemia cells and human stomach tumor cells; conditions: Hibasami et al. 1998; cited from earlier work
[6] = tested on: human A431 carcinoma cells; conditions: compared with EGCG; Liang et al. 1999; cited from earlier work
[7] = tested on: EGF and PDGF receptors; conditions: compared with EGCG; Liang et al. 1999; cited from earlier work

| Molecule | Cox-2 gene expression in Caco-2 cells [1] | growth of human tumor cells [2] | growth of normal counterparts [3] | differential growth inhibition of W138 versus W138VA cells [4] | apoptosis in human lymphoid leukemia cells and human stomach tumor cells [5] | inhibiting the growth of human A431 carcinoma cells [6] | reducing autophosphorylation of EGF and PDGF receptors [7] |
| --- | --- | --- | --- | --- | --- | --- | --- |
| (−)epigallocatechin gallate [EGCG] | suppressed Cox-2 gene expression it was not as potent as TF-2 | inhibits growth | little or no inhibitory effect | – | – | – | – |
| O=c1c(O)cc([C@H]2Oc3cc(O)cc(O)c3C[C@H]2O)cc2c([C@H]3Oc4cc(O)cc(O)c4C[C@H]3O)cc(O)c(O)c12 [TF-1, theaflavin] | failed to affect Cox-2 gene expression | – | – | did not exhibit this differential growth inhibition | can induce apoptosis | – | – |
| O=C(O[C@@H]1Cc2c(O)cc(O)cc2O[C@@H]1c1cc(O)c(=O)c2c(O)c(O)cc([C@H]3Oc4cc(O)cc(O)c4C[C@H]3OC(=O)c3cc(O)c(O)c(O)c3)c2c1)c1cc(O)c(O)c(O)c1 [TF-3, theaflavin-3,3′-digallate] | failed to affect Cox-2 gene expression | – | – | did not exhibit this differential growth inhibition | can induce apoptosis | as potent as EGCG | as potent as EGCG |

From patent US7238376B2, “Black tea extract for prevention of disease” (Rutgers, The State University, priority 2000, dated 2007)
